From patent US20250051275A1, “PYRROLE DERIVATIVE OR PHARMACEUTICALLY OR SITOLOGICALLY ACCEPTABLE SALTS THEREOF, AND COMPOSITION FOR PREVENTION, AMELIORATION OR TREATMENT OF GASTROINTESTINAL DISORDERS COMPRISING SAME AS ACTIVE INGREDIENT” (HANA PHARM CO., LTD., priority 2021, published 2025)
pIC50: −log10 of the molar value. Read-outs that look alike come from different tables or passages of the source.

Tests used:
[1] = Oral bioavailability in beagle dogs; type: in vivo; details: dog, plasma; for AUC(0-t) / half-life / Cmax / Tmax: mean n=3; for bioavailability: po, read-out: BA (bioavailability)
Procedure: To evaluate oral bioavailability, Example 7 was administered intravenously or orally to beagle dogs.
For the intravenous administration group, blood samples were obtained from peripheral veins 1 minute, 5 minutes, 15 minutes, 30 minutes, 1 hour, 2 hours, 4 hours, 8 hours, and 24 hours after drug administration. For the oral administration group, blood samples were obtained from peripheral veins 15 minutes, 30 minutes, 1 hour, 2 hours, 4 hours, 6 hours, 8 hours, 12 hours, and 24 hours after drug administration. Blood samples collected at different times were treated with EDTA and centrifuged (2 to 8° C., 3,200 g, 10 minutes) to separate plasma.
The amount of administered compound into the plasma sample was quantified by using LC-MS/MS. Pharmacokinetic parameters were obtained by using a non-compartmental model in Phoenix WinNonlin 6.3 software.
‘AUC0-last’ indicates the area under the time curve, ‘Cmax’ indicates the highest plasma concentration, ‘Tmax’ indicates the time to reach the highest plasma concentration, ‘T1/2’ indicates the half-life, and ‘BA’ indicates the bioavailability.

[2] = tested on: human gastric cancer cells (AGS Cells); assay: MTS assay, inhibition of proliferation of human gastric cancer cells (AGS Cells); type: cell-based; details: Homo sapiens, 48 hours
Procedure: To examine the effect of inhibiting the proliferation of the compounds indicated in the examples of the present invention on human gastric cancer cells (AGS Cells), MTS Assay experiments were in vitro performed. AGS cells were cultured in a 5% CO2 incubator at 37° C. by using RPMI 1640 medium containing 1% penicillin-streptomycin and 10% fetal bovine serum. The cells in culture were separated with using 0.25% Trypsin-0.02% EDTA every 3 to 4 days and subcultured.
For the experiment, the cultured cells were treated with 0.25% Trypsin-0.02% EDTA solution, the suspended cells were centrifuged at 1,200 rpm for 5 minutes, the supernatant was discarded, a culture medium was added thereto, and a cell suspension was made with the culture medium. Using a hemocytometer, 10,000 cells per well were dispensed into 96-well plates and cultured. After 24 hours, when the cells attached to the plate, the culture medium was discarded, and the cells were treated with new culture media prepared by concentration (test concentrations: 500 μm, 250 μm, 125 μm, 63 μm, 31 μm, 16 μm, 8 μm, 4 μm, and 2 μm) and cultured in a CO2 incubator for 48 hours. After treating with an MTS solution, the cells were incubated in a CO2 incubator for 1 hour, and the absorbance was measured at 490 nm by using a microplate reader device. The cell proliferation inhibition rate was expressed as IC50, which is 50% inhibition of cell proliferation, using GraphPad Prism 5.
In Table 2 below, the IC50 value is indicated as “+++” for 0 to 50 μM, “++” for 51 to 100 μM, and “+” for 101 to 400 μM.

[3] = Pharmacokinetic profile in beagles, single oral dose; type: in vivo, beagle dogs; details: male, dog, plasma, beagle, mean n=3
Procedure: A total of 18 male beagle dogs (Marshall Beagle, Beijing) with an average weight of 9 to 11 kg were obtained, acclimatized, and distributed into a total of 6 groups, 3 dogs per test group. During the entire experiment, all beagle dogs were supplied with standardized solid food and water. The breeding room was kept under controlled and monitored conditions, while maintaining a temperature of 18° C. to 26° C., a humidity of 40% to 70%, and a light-dark cycle of 12 hours-12 hours.
The test group consisted of beagle dogs that were orally administered the vehicle as the vehicle group, beagle dogs that were orally administered control drug 1 (vonoprazan) as the comparison group, and administration group was beagle dogs orally administered with Example 7.
Blood samples were obtained from peripheral veins at 30 minutes, 1 hour, 2.5 hours, 4.5 hours, 7.5 hours, 25.5 hours, and 49.5 hours after drug administration, respectively. Blood samples were centrifuged (2 to […], 3,200 g, 10 minutes) to obtain plasma. The amount of the administered compound into the plasma samples was quantified by using LC-MS/MS. Pharmacokinetic parameters were obtained by using a non-compartmental model in Phoenix WinNonlin 6.3 software. ‘AUC0-last’ indicates the area under the time curve, ‘Cmax’ indicates the highest plasma concentration, ‘ Tmax’ indicates the time to reach the highest plasma concentration, and ‘T1/2’ indicates the half-life.

[4] = tested on: Human gastric cancer cells (MKN-45 Cell); assay: Anticancer efficacy in xenograft mouse model; type: in vivo, nude mice; details: 10 mg/kg oral once/day, Day 12, MKN-45 xenograft
Procedure: This study was conducted to evaluate the anticancer efficacy of the compound of Example 15 of the present invention in a xenograft tumor model. Human gastric cancer cells (MKN-45 Cell) were purchased from the Korea Cell Line Bank and cultured in a 5% CO2 incubator at 37° C. by using an RPMI 1640 medium containing 1% penicillin-streptomycin and 10% fetal bovine serum. The cultured cells were separated using 0.25% Trypsin-0.02% EDTA every 3 to 4 days and then subcultured. Cells. Four-week-old female nude mice were purchased, and after a one-week acclimatization period in a laboratory environment, the nude mice that reached 5 weeks of age were used in the experiment. MKN-45 cells were made into a single cell suspension by using Matrigel and DPBS, and implanted subcutaneously into nude mice at a concentration of 1×10^7 cells per mouse. One week after MKN-45 cell transplantation, experimental animals with tumors with a specific size were selected and divided into 3 groups with 10 animals per group. The compound of Example 7 was administered orally at administration concentrations of 10 mg/kg and 30 mg/kg, and the experiment was conducted for 12 days.
The size of the tumor was calculated using the formula ‘short axis×short axis×long axis/2,’ and the results of the changes in tumor size change are illustrated in FIG. 2.

In the case of `[2H]C([2H])([2H])NCc1cc(-c2ccccc2F)n(S(=O)(=O)c2ccc(F)cc2)c1` [Example 7, N-((5-(2-fluorophenyl)-1-((4-fluorophenyl)sulfonyl)-1H-pyrrol-3-yl)methyl)methan-d3-amine], the AUC(0-t) ([1]; intravenous 0.2 mg/kg) was 423 ng·h/mL, the half-life ([1]; intravenous 0.2 mg/kg) was 3.57 h and the AUC(0-t) ([1]; oral 2 mg/kg (1 mg/ml)) was 6940 ng·h/mL. It also gave a Cmax ([1]; oral 2 mg/kg (1 mg/ml)) of 632 ng/mL, a Tmax ([1]; oral 2 mg/kg (1 mg/ml)) of 1.53 h and a half-life ([1]; oral 2 mg/kg (1 mg/ml)) of 5.55 h. It also gave an AUC(0-t) ([1]; oral 6 mg/kg (3 mg/ml)) of 15100 ng·h/mL, a Cmax ([1]; oral 6 mg/kg (3 mg/ml)) of 1120 ng/mL and a Tmax ([1]; oral 6 mg/kg (3 mg/ml)) of 3.67 h. For the same compound, the half-life ([1]; oral 6 mg/kg (3 mg/ml)) was 7.49 h, the AUC(0-t) ([1]; oral 20 mg/kg (10 mg/ml)) was 49300 ng·h/mL and the Cmax ([1]; oral 20 mg/kg (10 mg/ml)) was 3350 ng/mL. For the same compound, the Tmax ([1]; oral 20 mg/kg (10 mg/ml)) was 3.33 h, the half-life ([1]; oral 20 mg/kg (10 mg/ml)) was 18.3 h and the bioavailability ([1]; 2 mg/kg, oral 2 mg/kg (1 mg/ml)) was no less than 100%. It also gave a bioavailability ([1]; 6 mg/kg, oral 6 mg/kg (3 mg/ml)) of no less than 100%, a bioavailability ([1]; 20 mg/kg, oral 20 mg/kg (10 mg/ml)) of no less than 100% and a pIC50 ([2]; read-out: Proliferation inhibitory effect of gastric cancer cells (IC50)) of 4.45. It also gave an IC50 ([2]; read-out: Proliferation inhibitory effect of gastric cancer cells (IC50, μM), class symbol) of less than 50 µM, an AUC(0-t) ([3]; oral single dose 0.1 mg/kg) of 99.4 ng·h/mL and a Cmax ([3]; oral single dose 0.1 mg/kg) of 32.3 ng/mL. It also gave a Tmax ([3]; oral single dose 0.1 mg/kg) of 0.833 h, a half-life ([3]; oral single dose 0.1 mg/kg) of 1.67 h and an AUC(0-t) ([3]; oral single dose 0.3 mg/kg) of 808 ng·h/mL. For the same compound, the Cmax ([3]; oral single dose 0.3 mg/kg) was 165 ng/mL, the Tmax ([3]; oral single dose 0.3 mg/kg) was 1 h and the half-life ([3]; oral single dose 0.3 mg/kg) was 2.93 h. It also gave an AUC(0-t) ([3]; oral single dose 1 mg/kg) of 2890 ng·h/mL, a Cmax ([3]; oral single dose 1 mg/kg) of 397 ng/mL and a Tmax ([3]; oral single dose 1 mg/kg) of 1 h. The half-life ([3]; oral single dose 1 mg/kg) was 3.03 h, the AUC(0-t) ([3]; oral single dose 3 mg/kg) was 19200 ng·h/mL and the Cmax ([3]; oral single dose 3 mg/kg) was 1430 ng/mL. The Tmax ([3]; oral single dose 3 mg/kg) was 2.17 h, the half-life ([3]; oral single dose 3 mg/kg) was 4.29 h and the “tumor size reduced as compared to the Control group (vehicle)” value [4] was 42%.
